According to BindingDB's records for doi:10.1016/j.bioorg.2016.07.006 (Dumlupinar University, 2016):

How the values were obtained:
Carbonic anhydrase 2 = Carbonic anhydrase 2 (Homo sapiens, UniProt P00918); experiment: In vitro Carbonic Anhydrase Inhibition Assay
Protocol: (§1) CA activity was measured according to the method described by Verpoorte et al. in inhibition studies, spectrophotometrically [Biochem., 242:4221-4229]. The reaction mixture contains 50 mM Tris-SO4 buffer (pH = 7.4), 3 mM 4-nitrophenylacetate and enzyme solution in 1 ml total volume. A reference measurement was done by using the same cuvette without enzyme solution. The measurement was repeated in triplicate at each concentration of 5-amino-1,3,4-thiadiazole-2-sulfonamide containing pyrazole derivatives.

Carbonic anhydrase 1 = Carbonic anhydrase 1 (Homo sapiens, UniProt P00915); experiment: In vitro Carbonic Anhydrase Inhibition Assay
Chain of Carbonic anhydrase 1 (P00915 whole entry): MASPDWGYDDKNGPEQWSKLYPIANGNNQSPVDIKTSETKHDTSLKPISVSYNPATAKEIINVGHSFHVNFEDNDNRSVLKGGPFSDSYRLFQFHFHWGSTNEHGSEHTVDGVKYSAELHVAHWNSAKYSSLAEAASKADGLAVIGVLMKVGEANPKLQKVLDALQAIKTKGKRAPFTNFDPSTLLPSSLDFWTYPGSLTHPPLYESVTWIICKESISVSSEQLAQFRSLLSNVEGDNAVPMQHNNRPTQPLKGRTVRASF
Protocol: as §1

CCOC(=O)/C(=N\Nc1cccc(-n2nc(C(=O)Nc3nnc(S(N)(=O)=O)s3)c(C(=O)Nc3nnc(S(N)(=O)=O)s3)c2-c2ccccc2)c1)C(C)=O [Ethyl 3-oxo-2-(2-(3-(5-phenyl-3,4-bis((5-sulfamoyl-1,3,4-thiadiazol-2-yl)carbamoyl)-1H-pyrazol-1-yl)phenyl)hydrazono)butanoate (7)]
Ki (Carbonic anhydrase 2): 208 nM | Ki (Carbonic anhydrase 1): 710 nM

NS(=O)(=O)c1nnc(NC(=O)c2nn(-c3cccc(NN=C(C(=O)c4ccccc4)C(=O)c4ccccc4)c3)c(-c3ccccc3)c2C(=O)Nc2nnc(S(N)(=O)=O)s2)s1 [1-(3-(2-(1,3-Dioxo-1,3-diphenylpropan-2-ylidene)hydrazinyl)phenyl)-5-phenyl-N3,N4-bis(5-sulfamoyl-1,3,4-thiadiazol-2-yl)-1Hpyrazole-3,4-dicarboxamide (8)]
Ki (Carbonic anhydrase 2): 878 nM | Ki (Carbonic anhydrase 1): 4000 nM

CC(=O)C(=NNc1cccc(-n2nc(C(=O)Nc3nnc(S(N)(=O)=O)s3)c(C(=O)Nc3nnc(S(N)(=O)=O)s3)c2-c2ccccc2)c1)C(C)=O [1-(3-(2-(2,4-Dioxopentan-3-ylidene)hydrazinyl)phenyl)-5-phenyl-N3,N4-bis(5-sulfamoyl-1,3,4-thiadiazol-2-yl)-1H-pyrazole-3,4-dicarboxamide (5)]
Ki (Carbonic anhydrase 2): 494 nM | Ki (Carbonic anhydrase 1): 767 nM

CC(=O)/C(=N/Nc1cccc(-n2nc(C(=O)Nc3nnc(S(N)(=O)=O)s3)c(C(=O)Nc3nnc(S(N)(=O)=O)s3)c2-c2ccccc2)c1)C(=O)OC(C)(C)C [tert-Butyl 3-oxo-2-(2-(3-(5-phenyl-3,4-bis((5-sulfamoyl-1,3,4-thiadiazol-2-yl)carbamoyl)-1H-pyrazol-1-yl)phenyl)hydrazono)butanoate (12)]
Ki (Carbonic anhydrase 2): 149 nM | Ki (Carbonic anhydrase 1): 522 nM

CCCC(=O)/C(=N/Nc1cccc(-n2nc(C(=O)Nc3nnc(S(N)(=O)=O)s3)c(C(=O)Nc3nnc(S(N)(=O)=O)s3)c2-c2ccccc2)c1)C(=O)OCC [Ethyl 3-oxo-2-(2-(3-(5-phenyl-3,4-bis((5-sulfamoyl-1,3,4-thiadiazol-2-yl)carbamoyl)-1H-pyrazol-1-yl)phenyl)hydrazono)hexanoate (11)]
Ki (Carbonic anhydrase 2): 84 nM | Ki (Carbonic anhydrase 1): 246 nM

CCOC(=O)/C(=N\Nc1cccc(-n2nc(C(=O)Nc3nnc(S(N)(=O)=O)s3)c(C(=O)Nc3nnc(S(N)(=O)=O)s3)c2-c2ccccc2)c1)C(=O)c1ccccc1 [Ethyl 3-oxo-3-phenyl-2-(2-(3-(5-phenyl-3,4-bis((5-sulfamoyl-1,3,4-thiadiazol-2-yl)carbamoyl)-1H-pyrazol-1-yl)phenyl)hydrazono)propanoate (9)]
Ki (Carbonic anhydrase 2): 435 nM | Ki (Carbonic anhydrase 1): 487 nM

NS(=O)(=O)c1nnc(NC(=O)c2nn(-c3cccc(/N=N/c4c(O)ccc5ccccc45)c3)c(-c3ccccc3)c2C(=O)Nc2nnc(S(N)(=O)=O)s2)s1 [1-(3-((2-Hydroxynaphthalen-1-yl)diazenyl)phenyl)-5-phenyl-N3,N4-bis(5-sulfamoyl-1,3,4-thiadiazol-2-yl)-1H-pyrazole-3,4-dicarboxamide (4)]
Ki (Carbonic anhydrase 2): 411 nM | Ki (Carbonic anhydrase 1): 1660 nM

CC(=O)/C(=N/Nc1cccc(-n2nc(C(=O)Nc3nnc(S(N)(=O)=O)s3)c(C(=O)Nc3nnc(S(N)(=O)=O)s3)c2-c2ccccc2)c1)C(=O)c1ccccc1 [1-(3-(2-(1,3-Dioxo-1-phenylbutan-2-ylidene)hydrazinyl)phenyl)-5-phenyl-N3,N4-bis(5-sulfamoyl-1,3,4-thiadiazol-2-yl)-1H-pyrazole-3,4-dicarboxamide (6)]
Ki (Carbonic anhydrase 2): 119 nM | Ki (Carbonic anhydrase 1): 119 nM

NS(=O)(=O)c1nnc(NC(=O)c2nn(-c3cccc(NN=C4C(=O)CCCC4=O)c3)c(-c3ccccc3)c2C(=O)Nc2nnc(S(N)(=O)=O)s2)s1 [1-(3-((2-Hydroxy-6-oxocyclohex-1-en-1-yl)diazenyl)phenyl)-5-phenyl-N3,N4-bis(5-sulfamoyl-1,3,4-thiadiazol-2-yl)-1H-pyrazole-3,4-dicarboxamide (13)]
Ki (Carbonic anhydrase 2): 157 nM | Ki (Carbonic anhydrase 1): 508 nM

CCOC(=O)C(=NNc1cccc(-n2nc(C(=O)Nc3nnc(S(N)(=O)=O)s3)c(C(=O)Nc3nnc(S(N)(=O)=O)s3)c2-c2ccccc2)c1)C(=O)OCC [Diethyl 2-(2-(3-(5-phenyl-3,4-bis((5-sulfamoyl-1,3,4-thiadiazol-2-yl)carbamoyl)-1H-pyrazol-1-yl)phenyl)hydrazono)malonate (10)]
Ki (Carbonic anhydrase 2): 203 nM | Ki (Carbonic anhydrase 1): 461 nM

CC1(C)CC(=O)C(=NNc2cccc(-n3nc(C(=O)Nc4nnc(S(N)(=O)=O)s4)c(C(=O)Nc4nnc(S(N)(=O)=O)s4)c3-c3ccccc3)c2)C(=O)C1 [1-(3-((2-Hydroxy-4,4-dimethyl-6-oxocyclohex-1-en-1-yl)diazenyl)phenyl)-5-phenyl-N3,N4-bis(5-sulfamoyl-1,3,4-thiadiazol-2-yl)-1H-pyrazole-3,4-dicarboxamide (14)]
Ki (Carbonic anhydrase 2): 288 nM | Ki (Carbonic anhydrase 1): 787 nM

COC(=O)C(/N=N/c1cccc(-n2nc(C(=O)Nc3nnc(S(N)(=O)=O)s3)c(C(=O)Nc3nnc(S(N)(=O)=O)s3)c2-c2ccccc2)c1)S(=O)(=O)c1ccccc1 (centres undefined) [Methyl 2-((3-(5-phenyl-3,4-bis((5-sulfamoyl-1,3,4-thiadiazol-2-yl)carbamoyl)-1H-pyrazol-1-yl)phenyl)diazenyl)-2-(phenylsulfonyl)acetate (15)]
Ki (Carbonic anhydrase 2): 92 nM | Ki (Carbonic anhydrase 1): 318 nM
